In brackets after ≈: the same amount, converted by molar mass. Where a name gives a salt, the structure may show the parent alone. Read-outs that look alike come from different tables or passages of the source.
Tests used:
WT E. coli = assay: Minimal inhibitory concentration in wild-type E. coli; type: cell-based, Escherichia coli; settings: wild-type E. coli, 37° C., 16 hours, read-out: MIC (μM) in WT E. coli
Experimental: General Procedure for Determination of Minimal Inhibitory Concentrations
Overnight cultures (5 mL) of bacterial strains were grown in LB media or TSA media (for S. aureus) at 37° C. and with shaking at 220 rpm until saturation. The overnight culture was diluted serially 1:100 (50 μL in 5 mL sterile media) and then 1:100 (250 μL in 25 mL sterile media). The 25 mL of diluted culture was then dispensed to a sterile 96 well plate (Corning #3370). 198 μL of culture were dispensed into row A and 100 μL of this culture were dispensed into rows B-H. Aminocoumarin compound (DMSO stock) were added to the first row and then the row was mixed by pipetting. 100 μL of culture from row A were transferred to row B and the serial dilution continued until the final 100 μL from row H were discarded. The plate was incubated without shaking in a 37° C. for 16 hours and then read by visible light spectrophotometer (Molecular Devices) at 600 nm. The minimal inhibitory concentration (MIC) was determined as the lowest concentration of compound concentration that inhibited the growth of bacteria.

S. aureus RN4220 = assay: Minimal inhibitory concentration, S. aureus RN4220; type: cell-based; settings: read-out: MIC (μM) S. aureus RN4220
Summary of the method: (§1)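 MIC, in µM, taken as the lowest compound concentration preventing growth by OD600 after 16 h static incubation at 37 °C. Compound was twofold serially diluted in bacteria grown overnight in LB, or TSA for S. aureus, and diluted 1:100 twice.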

S. aureus MW2 = assay: Minimal inhibitory concentration, S. aureus MW2; type: cell-based; settings: read-out: MIC (μM) S. aureus MW2 (MRSA)
Summary of the method: as §1

E. cloacae 13047 = assay: Minimal inhibitory concentration, E. cloacae 13047; type: cell-based; settings: read-out: MIC (μM) E. cloacae 13047
Summary of the method: as §1

A. baumannii 19606 = assay: Minimal inhibitory concentration, A. baumannii 19606; type: cell-based; settings: read-out: MIC (μM) A. baumannii 19606
Summary of the method: as §1

K. pneumoniae 700721 = assay: Minimal inhibitory concentration, K. pneumoniae 700721; type: cell-based; settings: read-out: MIC (μM) K. pneumoniae 700721
Summary of the method: as §1

E. coli MC4100 = assay: Minimal inhibitory concentration, E. coli MC4100; type: cell-based; settings: read-out: MIC (μM) E. coli MC4100 ara+
Summary of the method: as §1

E. coli 25922 = assay: Minimal inhibitory concentration, E. coli 25922; type: cell-based; settings: read-out: MIC (μM) E. coli 25922
Summary of the method: as §1

[1] = 16 hour minimal inhibitory concentration at 37° C.
[2] = Staphylococcus aureus, RN4220, 16 h, 16 hour minimal inhibitory concentration at 37° C.
[3] = Staphylococcus aureus, MRSA, 16 h, 16 hour minimal inhibitory concentration at 37° C.
[4] = Enterobacter cloacae, 13047, 16 hour minimal inhibitory concentration at 37° C.
[5] = Acinetobacter baumannii, 19606, 16 h, 16 hour minimal inhibitory concentration at 37° C.
[6] = Klebsiella pneumoniae, 700721, 16 hour minimal inhibitory concentration at 37° C.
[7] = Escherichia coli, MC4100, 16 h, 16 hour minimal inhibitory concentration at 37° C.
[8] = Escherichia coli, 25922, 16 h, 16 hour minimal inhibitory concentration at 37° C.

SMILES | MIC (WT E. coli) [µM] | MIC (S. aureus RN4220; [1]) [µM] | MIC (S. aureus MW2; [1]) [µM] | MIC (E. cloacae 13047; [1]) [µM] | MIC (A. baumannii 19606; [1]) [µM] | MIC (K. pneumoniae 700721; [1]) [µM] | MIC (E. coli MC4100; [1]) [µM] | MIC (E. coli 25922; [1]) [µM] | MIC (WT E. coli; Escherichia coli) [µM] | MIC (S. aureus RN4220; [2]) [µM] | MIC (S. aureus MW2; [3]) [µM] | MIC (E. cloacae 13047; [4]) [µM] | MIC (A. baumannii 19606; [5]) [µM] | MIC (K. pneumoniae 700721; [6]) [µM] | MIC (E. coli MC4100; [7]) [µM] | MIC (E. coli 25922; [8]) [µM] | other results
CO[C@@H]1[C@@H](OC(N)=O)[C@@H](O)[C@H](Oc2ccc3c(O)c(NC(=O)c4ccc(C#Cc5ccccc5)cc4)c(=O)oc3c2C)OC1(C)C [Compound 76] | 40 (≈ 25.1 µg/mL) | 5 (≈ 3.14 µg/mL) | 3 (≈ 1.89 µg/mL) | >100 | 40 (≈ 25.1 µg/mL) | >100 | 40 (≈ 25.1 µg/mL) | 80 (≈ 50.3 µg/mL) | – | – | – | – | – | – | – | – | –
CO[C@@H]1[C@@H](OC(N)=O)[C@@H](O)[C@H](Oc2ccc3c(O)c(NC(=O)c4cccc(-c5ccc(N(C)C)cc5)c4)c(=O)oc3c2C)OC1(C)C [Compound 25] | – | – | – | – | – | – | – | – | > 300 | 0.96 (≈ 0.622 µg/mL) | 0.96 (≈ 0.622 µg/mL) | > 100 | 19 (≈ 12.3 µg/mL) | > 100 | > 200 | > 200 | –
CO[C@@H]1[C@@H](OC(N)=O)[C@@H](O)[C@H](Oc2ccc3c(O)c(NC(=O)C45CC6CC(CC(C6)C4)C5)c(=O)oc3c2C)OC1(C)C [Compound 14] | – | – | – | – | – | – | – | – | > 300 | 43 (≈ 25.2 µg/mL) | 21 (≈ 12.3 µg/mL) | > 100 | > 50 | > 100 | > 200 | > 200 | –
CO[C@@H]1[C@@H](OC(N)=O)[C@@H](O)[C@H](Oc2ccc3c(O)c(NC(=O)c4cc(-c5ccccc5)ccc4N)c(=O)oc3c2C)OC1(C)C [Compound 85] | 59 (≈ 36.6 µg/mL) | 5 (≈ 3.1 µg/mL) | 2.5 (≈ 1.55 µg/mL) | >100 | >50 | >100 | 59 (≈ 36.6 µg/mL) | 40 (≈ 24.8 µg/mL) | – | – | – | – | – | – | – | – | –
CO[C@@H]1[C@@H](OC(N)=O)[C@@H](O)[C@H](Oc2ccc3c(O)c(NC(=O)c4ccc5c(ccn5C)c4)c(=O)oc3c2C)OC1(C)C [Compound 72] | >300 | 86 (≈ 50 µg/mL) | 43 (≈ 25 µg/mL) | >100 | >50 | >100 | >200 | >200 | – | – | – | – | – | – | – | – | –
CO[C@@H]1[C@@H](OC(N)=O)[C@@H](O)[C@H](Oc2ccc3c(O)c(NC(=O)c4ccc(O)c(CCC(N)=O)c4)c(=O)oc3c2C)OC1(C)C [Compound 91] | >300 | >100 | >100 | >100 | >50 | >100 | >200 | >200 | – | – | – | – | – | – | – | – | –
CO[C@@H]1[C@@H](OC(N)=O)[C@@H](O)[C@H](Oc2ccc3c(O)c(NC(=O)c4cccc(-c5ccccn5)c4)c(=O)oc3c2C)OC1(C)C [Compound 31] | – | – | – | – | – | – | – | – | > 300 | 41 (≈ 24.8 µg/mL) | 41 (≈ 24.8 µg/mL) | > 100 | > 50 | > 100 | > 200 | > 200 | –
CO[C@@H]1[C@@H](OC(N)=O)[C@@H](O)[C@H](Oc2ccc3c(O)c(NC(=O)c4ccc(-c5ccccc5)cc4)c(=O)oc3c2C)OC1(C)C [Compound 2] | – | – | – | – | – | – | – | – | > 300 | 21 (≈ 12.7 µg/mL) | 21 (≈ 12.7 µg/mL) | > 100 | > 50 | > 100 | > 200 | > 200 | –
CO[C@@H]1[C@@H](OC(N)=O)[C@@H](O)[C@H](Oc2ccc3c(O)c(NC(=O)c4cccc(-c5ccncc5)c4)c(=O)oc3c2C)OC1(C)C [Compound 32] | – | – | – | – | – | – | – | – | > 300 | 83 (≈ 50.3 µg/mL) | 41 (≈ 24.8 µg/mL) | > 100 | > 50 | > 100 | > 200 | > 200 | –
CO[C@@H]1[C@H](OC(N)=O)C(O)[C@H](Oc2ccc3c(O)c(NS(=O)(=O)c4cccc(-c5ccccc5)c4)c(=O)oc3c2C)OC1(C)C (stereo partly drawn) [Compound 36] | – | – | – | – | – | – | – | – | > 300 | – | – | – | – | – | – | – | –
COC1[C@H](OC(N)=O)C(O)[C@H](Oc2ccc3c(O)c(N)c(=O)oc3c2C)OC1(C)C (stereo partly drawn) [Compound 19, novenamine hydrochloride] | – | – | – | – | – | – | – | – | > 300 | – | – | – | – | – | – | – | –
CO[C@@H]1[C@@H](OC(N)=O)[C@@H](O)[C@H](Oc2ccc3c(O)c(NC(=O)c4cccc(-c5cn[nH]c5)c4)c(=O)oc3c2C)OC1(C)C [Compound 18] | >300 | – | – | – | – | – | – | – | – | – | – | – | – | – | – | – | –
C=CCOc1c(NC(=O)c2ccc(O)c(CC=C(C)C)c2)c(=O)oc2c(C)c(O[C@@H]3OC(C)(C)[C@H](OC)[C@@H](OC(N)=O)[C@H]3O)ccc12 [Compound 212] | – | – | – | – | – | – | – | – | – | > 100 | > 100 | > 100 | > 50 | > 100 | > 200 | > 200 | –
CO[C@@H]1[C@@H](O)[C@@H](OC(=O)NC(C)C)[C@H](Oc2ccc3c(O)c(NC(=O)c4ccc(O)c(CC=C(C)C)c4)c(=O)oc3c2C)OC1(C)C [Compound 105] | – | >100 | >100 | >100 | >50 | >100 | >200 | >200 | – | – | – | – | – | – | – | – | –
CO[C@@H]1[C@@H](OC(=O)c2cc(C)c(C)[nH]2)[C@@H](O)[C@H](Oc2ccc3c(O)c(NC(=O)c4ccc(O)c(CC=C(C)C)c4)c(=O)oc3c2C)OC1(C)C [Compound 213] | – | – | – | – | – | – | – | – | – | – | – | – | – | – | – | – | MIC (S. aureus RN4220; Staphylococcus aureus, RN4220, 16 h): 1.8 µM (≈ 1.24 µg/mL); MIC (S. aureus MW2; Staphylococcus aureus, MRSA, 16 h): 0.45 µM (≈ 0.311 µg/mL); MIC (E. cloacae 13047; Enterobacter cloacae, 13047, 16 h): > 100 µM; MIC (A. baumannii 19606; Acinetobacter baumannii, 19606, 16 h): 4.5 µM (≈ 3.11 µg/mL); MIC (K. pneumoniae 700721; Klebsiella pneumoniae, 700721, 16 h): > 100 µM; MIC (E. coli MC4100; Escherichia coli, MC4100, 16 h): > 200 µM; MIC (E. coli 25922; Escherichia coli, 25922, 16 h): > 200 µM
COc1ccc(C(=O)Nc2c(O)c3ccc(O[C@@H]4OC(C)(C)[C@H](OC)[C@@H](OC(N)=O)[C@H]4O)c(C)c3oc2=O)cc1Oc1ccccc1 [Compound 256] | – | – | – | – | – | – | – | – | – | 19 (≈ 12.4 µg/mL) | 19 (≈ 12.4 µg/mL) | > 100 | > 50 | 19 (≈ 12.4 µg/mL) | 10 (≈ 6.51 µg/mL) | 10 (≈ 6.51 µg/mL) | –
CO[C@@H]1[C@@H](O)[C@@H](OC(=O)NC2CCCC2)[C@H](Oc2ccc3c(O)c(NC(=O)c4ccc(O)c(CC=C(C)C)c4)c(=O)oc3c2C)OC1(C)C [Compound 107] | – | 73 (≈ 49.7 µg/mL) | 73 (≈ 49.7 µg/mL) | >100 | 9 (≈ 6.13 µg/mL) | >100 | >200 | >200 | – | – | – | – | – | – | – | – | –
CO[C@@H]1[C@@H](OC(N)=O)[C@@H](O)[C@H](Oc2ccc3c(O)c(NC(=O)c4ccc(C)o4)c(=O)oc3c2C)OC1(C)C [Compound 12] | >300 | – | – | – | – | – | – | – | – | – | – | – | – | – | – | – | –
CO[C@@H]1[C@@H](OC(N)=O)[C@@H](O)[C@H](Oc2ccc3c(O)c(NC(=O)C45CC6CC(CC(F)(C6)C4)C5)c(=O)oc3c2C)OC1(C)C [Compound 100] | – | 83 (≈ 50.2 µg/mL) | 41 (≈ 24.8 µg/mL) | >100 | >50 | >100 | >200 | >200 | – | – | – | – | – | – | – | – | –
CO[C@@H]1[C@@H](OC(N)=O)[C@@H](O)[C@H](Oc2ccc3c(O)c(NC(=O)c4ccc(O)c(C/C=C/CC(=O)O)c4)c(=O)oc3c2C)OC1(C)C [Compound 80] | >300 | – | – | – | – | – | – | – | – | – | – | – | – | – | – | – | –
CO[C@@H]1[C@@H](OC(N)=O)[C@@H](O)[C@H](Oc2ccc3c(O)c(NC(=O)c4cccc(Oc5ccc(C)cc5)c4)c(=O)oc3c2C)OC1(C)C [Compound 221] | – | – | – | – | – | – | – | – | – | 10 (≈ 6.35 µg/mL) | 10 (≈ 6.35 µg/mL) | > 100 | > 50 | > 100 | 10 (≈ 6.35 µg/mL) | 5 (≈ 3.17 µg/mL) | –
